Measurements published in patent US20050171195A1, “P2X7 antagonists for treating neuropathic pain” (priority 2003, published 2005).

What was measured:
P2X7 receptor = target: T1, P2X7 receptor (Homo sapiens, UniProt Q99572); test: P2X7 mediated pore formation (YO-PRO dye uptake, FLIPR); format: cell-based; conditions: THP-1 cells
T1 construct: endogenous in cells; host or cells: THP-1 cells
T1 sequence (Q99572 1-595): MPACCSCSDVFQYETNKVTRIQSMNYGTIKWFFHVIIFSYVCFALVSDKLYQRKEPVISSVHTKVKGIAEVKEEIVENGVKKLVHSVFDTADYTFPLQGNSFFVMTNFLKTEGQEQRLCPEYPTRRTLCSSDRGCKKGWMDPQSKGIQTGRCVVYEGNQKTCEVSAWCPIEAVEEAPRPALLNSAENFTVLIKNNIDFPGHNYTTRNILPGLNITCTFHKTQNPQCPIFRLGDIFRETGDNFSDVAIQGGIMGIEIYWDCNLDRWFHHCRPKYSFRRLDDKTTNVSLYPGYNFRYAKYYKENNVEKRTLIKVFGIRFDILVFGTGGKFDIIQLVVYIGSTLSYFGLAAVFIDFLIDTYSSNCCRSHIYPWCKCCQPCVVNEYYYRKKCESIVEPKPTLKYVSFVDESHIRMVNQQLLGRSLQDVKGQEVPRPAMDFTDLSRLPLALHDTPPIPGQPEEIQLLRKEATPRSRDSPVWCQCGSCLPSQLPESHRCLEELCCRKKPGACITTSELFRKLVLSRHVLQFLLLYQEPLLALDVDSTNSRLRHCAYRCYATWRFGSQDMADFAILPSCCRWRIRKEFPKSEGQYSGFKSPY
Experimental: P2X7 Mediated Pore Formation. Activation of the P2X7 receptor induces nonspecific pore formation and eventually cell lysis (Verhoef et al., The Journal of Immunology, Vol. 170, pages 5728-5738, 2003). Accordingly, the inhibitory activity of the antagonists of the present invention was determined by their capacity to inhibit the agonist-induced pore formation using the fluorescent dye YO-PRO (MW=629) and Fluorescence Imaging Plate Reader (FLIPR, Molecular Devices, Sunnydale, Calif.) in THP-1 cells. […] The YO-PRO iodide dye (1 mM in DMSO) was diluted to a final concentration of 2 μM in PBS (w/o Mg^2+ or Ca^2+) and then placed on the cells immediately prior to the agonist addition. Since the THP-1 cells are a non-adherent cell line, the cells were washed in PBS and loaded with the dye in a conical tube prior to spinning the cells onto poly-lysine-coated black-walled 96-well plates, which were utilized to reduce light scattering. […] The intensity of the fluorescence was captured by the CCD camera every 15 seconds for the first 10 minutes of agonist exposure followed by every 20 seconds for an additional 50 minutes with the data being digitally transferred to an interfaced PC. The exposure setting of the camera was 0.25 sec with an f-stop setting of 2. […]

Compound | EC70 value for agonist activation (P2X7 receptor) | melting point
benzoylbenzoic ATP [BzATP] | 50 µM | –
Cc1ncccc1NC(=NC#N)NC(NC(=O)Cc1ccc(F)cc1)C(C)(C)C (stereo not shown) [Example 6, N-[1-({(cyanoimino)[(2-methyl-3-pyridinyl)amino]methyl}amino)-2,2-dimethylpropyl]-2-(4-fluorophenyl)acetamide] | – | 166 to 167 °C
CC(C)(C)C(NC(=O)Cc1ccc2cccnc2c1)NC(=NC#N)Nc1cccc2ncccc12 (stereo not shown) [Example 39, N-(1-{[(cyanoimino)(5-quinolinylamino)methyl]amino}-2,2-dimethylpropyl)-2-(7-quinolinyl)acetamide] | – | 147 to 148 °C
CCc1ncccc1NC(=NC#N)NC(NC(=O)Cc1ccc(Cl)cc1)C(C)(C)C (stereo not shown) [Example 9, 2-(4-chlorophenyl)-N-[1-({(cyanoimino)[(2-ethyl-3-pyridinyl)amino]methyl}amino)-2,2-dimethylpropyl]acetamide] | – | 112 to 114 °C
